# Measured values reported in patent US8460669B2, “Compositions and methods for identifying response targets and treating flavivirus infection responses” (Academia Sinica, priority 2005, dated 2013).
# Legend:
# Dectin-1.Fc = molecular target: T1, Dectin-1.Fc (Homo sapiens, UniProt Q9BXN2); experiment: Immunosorbent dot binding assay with Dectin-1.Fc
# T1 construct: The extracellular domains of lectin receptors, TREMs and TLTs were cloned by the reverse-transcriptase polymerase chain reaction (RT-PCR); made in house; host or cells: 293-F (FreeStyle 293) cells
# T1 sequence (Q9BXN2 66-247 limits assumed): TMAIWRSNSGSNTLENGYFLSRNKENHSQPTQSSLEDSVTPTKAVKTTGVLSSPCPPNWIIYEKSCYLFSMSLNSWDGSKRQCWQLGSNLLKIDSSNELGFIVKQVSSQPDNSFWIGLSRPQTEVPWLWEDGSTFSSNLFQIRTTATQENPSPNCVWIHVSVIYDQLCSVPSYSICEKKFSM
# TLT-2.Fc = molecular target: T2, TLT-2.Fc (Homo sapiens, UniProt Q5T2D2); experiment: Immunosorbent dot binding assay with TLT-2.Fc; details: polysaccharide immobilized on PVDF membrane; receptor.Fc 1 μg/mL
# T2 construct: The extracellular domains of lectin receptors, TREMs and TLTs were cloned by the reverse-transcriptase polymerase chain reaction (RT-PCR); made in house; host or cells: 293-F (FreeStyle 293) cells
# T2 sequence (Q5T2D2 19-268 limits assumed): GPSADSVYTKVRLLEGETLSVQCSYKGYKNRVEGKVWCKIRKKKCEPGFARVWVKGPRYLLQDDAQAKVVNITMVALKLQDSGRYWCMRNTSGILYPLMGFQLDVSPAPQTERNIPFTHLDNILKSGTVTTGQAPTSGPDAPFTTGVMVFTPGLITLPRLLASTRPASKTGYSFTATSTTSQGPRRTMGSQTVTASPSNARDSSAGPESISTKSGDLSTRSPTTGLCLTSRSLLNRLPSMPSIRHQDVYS
# DC-SIGN = molecular target: T3, DC-SIGN (Homo sapiens, UniProt Q9NNX6); experiment: Sugar competition, biotinylated DV binding to DC-SIGN-transfected 293T cells; format: cell-based; details: flow cytometry
# T3 construct: expressed in transfected cells; host or cells: 293T cells
# T3 sequence (Q9NNX6 1-404): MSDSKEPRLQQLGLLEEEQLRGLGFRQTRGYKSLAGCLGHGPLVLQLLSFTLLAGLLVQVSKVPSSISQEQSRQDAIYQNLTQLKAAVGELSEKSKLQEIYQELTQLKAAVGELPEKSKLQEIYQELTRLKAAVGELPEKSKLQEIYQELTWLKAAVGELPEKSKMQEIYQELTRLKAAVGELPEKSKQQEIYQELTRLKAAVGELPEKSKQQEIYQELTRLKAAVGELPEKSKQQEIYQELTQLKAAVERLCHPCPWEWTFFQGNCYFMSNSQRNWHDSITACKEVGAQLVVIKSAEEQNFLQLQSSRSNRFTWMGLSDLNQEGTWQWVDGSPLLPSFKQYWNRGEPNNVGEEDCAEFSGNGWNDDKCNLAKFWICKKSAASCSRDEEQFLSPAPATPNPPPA
# Description: In FIG. 16b, complexes of DV (5×10^6 PFU) with receptor.Fc (5 μg) were immunoprecipitated and detected on westerns with mAb to DV envelope (E) protein. […] FIGS. 16d and 16e show sugar competition assays wherein both DC-SIGN (CLEC4L) and DVLR1/CLEC5A increase DV binding to human 293T cells (FIG. 16d), while addition of sugars inhibits biotinylated DV binding to DC-SIGN- (left panel) or DLVR1/CLEC5A- (right panel) transfected 293T cells in a dose-dependent manner as determined by flow cytometry (FIG. 16e). According to FIG. 16e, MFI represents mean fluorescence intensity. Units (U) for monosaccharide (mannose and fucose) and polysaccharide (mannan) are mM and mg/ml, respectively. […] Data are expressed as the mean±s.d. of three independent experiments. Two-tailed, Student's t-tests were performed.
# There are two conserved N-linked glycosylation sites at Asn-67 and Asn-153 of E protein (Pokidysheva, E. et al., Cell 124:485-93 (2006)), and the attached glycans (with terminal fucose and mannose) have been implicated in cellular attachment and viral entry (Modis, Y. et al., J. Virol. 79:1223-1231 (2005)). To investigate the participation of glycans in the association of DVLR1/CLEC5A with DV, virions were incubated with fucose, mannose, or mannan; where the last two sugars are the ligands for DC-SIGN (Mitchell et al., J. Biol. Chem. 276: 28939-28945 ([…])).
Substance,"inhibition of the interaction between Dectin-1.Fc and F3 (Dectin-1.Fc; competitor 0.1 μg-1000 μg, or EDTA 10 mM in TBST)","interaction with Dectin-1.Fc in dot-binding assay (Dectin-1.Fc; polysaccharide immobilized on PVDF membrane, receptor.Fc 1 μg/mL)",interaction with TLT-2.Fc in dot-binding assay (TLT-2.Fc),inhibition of the DC-SIGN-DV interaction (DC-SIGN)
"β-1,3-glucan [b-glucan]",inhibited,can bind,only Dectin-1.Fc can bind,–
mannan,–,–,–,dose-dependent inhibition
